Measured values from ChEMBL document CHEMBL1142788, “Synthesis and antibacterial activity of alkyl derivatives of the glycopeptide antibiotic A40926 and their amides” (2005).
Converted amounts (≈) assume the structure as drawn.

What was measured:
[1] = test system: Staphylococcus aureus; experiment: Minimum inhibitory concentration against methicillin-resistant Staphylococcus aureus
[2] = test system: Enterococcus faecalis; experiment: Minimum inhibitory concentration against vancomycin-sensitive Enterococcus faecalis in the presence of 30% bovine serum (n=3) (range = 8-4); assay type: functional
[3] = test system: Enterococcus faecalis; experiment: Minimum inhibitory concentration against vancomycin-A Enterococcus faecalis in the presence of 30% bovine serum (n=4); assay type: functional
[4] = test system: Enterococcus faecium; experiment: Minimum inhibitory concentration against vancomycin-sensitive Enterococcus faecium in the presence of 30% bovine serum (n=1); assay type: functional
[5] = test system: Staphylococcus aureus; experiment: Minimum inhibitory concentration against methicillin-sensitive Staphylococcus aureus
[6] = test system: Enterococcus faecium; experiment: Minimum inhibitory concentration against vancomycin-A Enterococcus faecium in the presence of 30% bovine serum in the presence of 30% bovine serum (n=1); assay type: functional
[7] = test system: Staphylococcus epidermidis; experiment: Minimum inhibitory concentration against methicillin-resistant Staphylococcus epidermidis in the presence of 30% bovine serum; assay type: functional
[8] = test system: Staphylococcus epidermidis; experiment: Minimum inhibitory concentration against methicillin-sensitive Staphylococcus epidermidis in the presence of 30% bovine serum; assay type: functional
[9] = test system: Enterococcus faecium; experiment: Minimum inhibitory concentration against vancomycin-sensitive Enterococcus faecium in the presence of 30% bovine serum(n=1); assay type: functional
[10] = test system: Enterococcus faecium; experiment: Minimum inhibitory concentration against vancomycin-A Enterococcus faecium in the presence of 30% bovine serum (n=1) (range = 0.5-16mg/l); assay type: functional
[11] = test system: Enterococcus faecalis; experiment: Minimum inhibitory concentration against vancomycin-A Enterococcus faecalis (n=4) (range = 0.25-8mg/L)
[12] = test system: Enterococcus faecalis; experiment: Minimum inhibitory concentration against vancomycin-sensitive Enterococcus faecalis in the presence of 30% bovine serum (n=3) (range = <0.125-0.25); assay type: functional
[13] = test system: Staphylococcus haemolyticus; experiment: Minimum inhibitory concentration against Staphylococcus haemolyticus in the presence of 30% bovine serum; assay type: functional
[14] = test system: Enterococcus faecalis; experiment: Minimum inhibitory concentration against vancomycin-A Enterococcus faecalis in the presence of 30% bovine serum(n=4) (range = 64-128mg/L); assay type: functional
[15] = test system: Enterococcus faecium; experiment: Minimum inhibitory concentration against vancomycin-A Enterococcus faecium in the presence of 30% bovine serum (n=1) (range = 64>128mg/L); assay type: functional
[16] = test system: Enterococcus faecalis; experiment: Minimum inhibitory concentration against vancomycin-sensitive Enterococcus faecalis in the presence of 30% bovine serum(n=3); assay type: functional
[17] = test system: Enterococcus faecalis; experiment: Minimum inhibitory concentration against vancomycin-sensitive Enterococcus faecalis in the presence of 30% bovine serum(n=3)(range = 0.25-0.5mg/l); assay type: functional
[18] = test system: Enterococcus faecium; experiment: Minimum inhibitory concentration against vancomycin-A Enterococcus faecium in the presence of 30% bovine serum (n=1) (range = 4>128mg/L); assay type: functional
[19] = test system: Enterococcus faecalis; experiment: Minimum inhibitory concentration against vancomycin-A Enterococcus faecalis in the presence of 30% bovine serum(n=4) (range = 128>128 mg/L); assay type: functional
[20] = test system: Enterococcus faecium; experiment: Minimum inhibitory concentration against vancomycin-A Enterococcus faecium in the presence of 30% bovine serum (n=1) (range = 2-128mg/L); assay type: functional
[21] = test system: Enterococcus faecalis; experiment: Minimum inhibitory concentration against vancomycin-A Enterococcus faecalis (n=4) (range = 4-128mg/L)
[22] = test system: Enterococcus faecalis; experiment: Minimum inhibitory concentration against vancomycin-sensitive Enterococcus faecalis in the presence of 30% bovine serum(n=3)(range = 0.5-1 mg/l); assay type: functional
[23] = test system: Enterococcus faecium; experiment: Minimum inhibitory concentration against vancomycin-A Enterococcus faecium in the presence of 30% bovine serum (n=1); assay type: functional
[24] = test system: Enterococcus faecalis; experiment: Minimum inhibitory concentration against vancomycin-sensitive Enterococcus faecalis in the presence of 30% bovine serum (n=3); assay type: functional
[25] = test system: Enterococcus faecalis; experiment: Minimum inhibitory concentration against vancomycin-A Enterococcus faecalis in the presence of 30% bovine serum(n=4) (range = 0.5-8 mg/L); assay type: functional
[26] = test system: Enterococcus faecalis; experiment: Minimum inhibitory concentration against vancomycin-A Enterococcus faecalis in the presence of 30% bovine serum(n=4) (range = 0.5-8mg/L); assay type: functional
[27] = test system: Enterococcus faecium; experiment: Minimum inhibitory concentration against vancomycin-A Enterococcus faecium in the presence of 30% bovine serum (n=1) (range = 0.25-32mg/l); assay type: functional

SMILES | MIC [1] [µg/mL] | MIC [5] [µg/mL] | MIC [7] [µg/mL] | MIC [8] [µg/mL] | MIC [9] [µg/mL] | MIC [13] [µg/mL] | MIC [16] [µg/mL] | further results
CN[C@H]1C(=O)N[C@@H]2Cc3ccc(cc3)Oc3cc4cc(c3O[C@@H]3OC(C(=O)O)C(O)[C@H](O)C3N)Oc3ccc(cc3Cl)[C@@H](O)C3NC(=O)[C@H](NC(=O)[C@@H]4NC(=O)[C@@H](NC2=O)c2cc(cc(O)c2Cl)Oc2cc1ccc2O)c1ccc(O)c(c1)-c1c(O[C@H]2O[C@H](CO)[C@@H](O)[C@H](O)[C@@H]2O)cc(O)cc1[C@@H](C(=O)O)NC3=O (some centres not stated) | 16 (≈ 10.3 µM) | 16 (≈ 10.3 µM) | – | – | – | – | – | MIC [2]: 8 µg/mL; MIC [3]: > 128 µg/mL; MIC [4]: 8 µg/mL; MIC [6]: > 128 µg/mL
CCCCc1ccc(CNC2[C@H](Oc3c4cc5cc3Oc3ccc(cc3Cl)[C@@H](O)C3NC(=O)[C@H](NC(=O)[C@@H]5NC(=O)[C@H]5NC(=O)[C@@H](Cc6ccc(cc6)O4)NC(=O)[C@H](N(C)Cc4ccc(CCCC)cc4)c4ccc(O)c(c4)Oc4cc(O)c(Cl)c5c4)c4ccc(O)c(c4)-c4c(O[C@H]5O[C@H](CO)[C@@H](O)[C@H](O)[C@@H]5O)cc(O)cc4[C@@H](C(=O)NCCCN(C)C)NC3=O)OC(C(=O)NCCCN(C)C)C(O)[C@@H]2O)cc1 (some centres not stated) | 2 (≈ 0.995 µM) | 1 (≈ 0.497 µM) | 2 | 0.25 | 0.5 | 2 | – | MIC [10]: 16 µg/mL; MIC [11]: 8 µg/mL (≈ 3.98 µM); MIC [12]: < 0.125 µg/mL
CCCCc1ccc(CNC2[C@H](Oc3c4cc5cc3Oc3ccc(cc3Cl)[C@@H](O)C3NC(=O)[C@H](NC(=O)[C@@H]5NC(=O)[C@H]5NC(=O)[C@@H](Cc6ccc(cc6)O4)NC(=O)[C@H](NC)c4ccc(O)c(c4)Oc4cc(O)c(Cl)c5c4)c4ccc(O)c(c4)-c4c(O[C@H]5O[C@H](CO)[C@@H](O)[C@H](O)[C@@H]5O)cc(O)cc4[C@@H](C(=O)O)NC3=O)OC(C(=O)O)C(O)[C@@H]2O)cc1 (some centres not stated) | 0.25 (≈ 0.147 µM) | 0.25 (≈ 0.147 µM) | 4 | 0.25 | 2 | 16 | < 0.125 | MIC [14]: 128 µg/mL; MIC [15]: > 128 µg/mL
CCCCc1ccc(CN(C)[C@H]2C(=O)N[C@@H]3Cc4ccc(cc4)Oc4cc5cc(c4O[C@@H]4OC(C(=O)O)C(O)[C@H](O)C4N)Oc4ccc(cc4Cl)[C@@H](O)C4NC(=O)[C@H](NC(=O)[C@@H]5NC(=O)[C@@H](NC3=O)c3cc(cc(O)c3Cl)Oc3cc2ccc3O)c2ccc(O)c(c2)-c2c(O[C@H]3O[C@H](CO)[C@@H](O)[C@H](O)[C@@H]3O)cc(O)cc2[C@@H](C(=O)O)NC4=O)cc1 (some centres not stated) | 1 (≈ 0.589 µM) | 1 (≈ 0.589 µM) | 8 | 1 | 0.5 | 32 | – | MIC [17]: 0.5 µg/mL; MIC [18]: > 128 µg/mL; MIC [19]: 128 µg/mL
CN(Cc1ccc2ccccc2c1)[C@H]1C(=O)N[C@@H]2Cc3ccc(cc3)Oc3cc4cc(c3O[C@@H]3OC(C(=O)O)C(O)[C@H](O)C3NCc3ccc5ccccc5c3)Oc3ccc(cc3Cl)[C@@H](O)C3NC(=O)[C@H](NC(=O)[C@@H]4NC(=O)[C@@H](NC2=O)c2cc(cc(O)c2Cl)Oc2cc1ccc2O)c1ccc(O)c(c1)-c1c(O[C@H]2O[C@H](CO)[C@@H](O)[C@H](O)[C@@H]2O)cc(O)cc1[C@@H](C(=O)O)NC3=O (some centres not stated) | 1 (≈ 0.546 µM) | 2 (≈ 1.09 µM) | 16 | 2 | 2 | 16 | < 0.125 | MIC [20]: > 128 µg/mL; MIC [21]: 128 µg/mL (≈ 69.9 µM)
CCCCOc1ccc(CNC2[C@H](Oc3c4cc5cc3Oc3ccc(cc3Cl)[C@@H](O)C3NC(=O)[C@H](NC(=O)[C@@H]5NC(=O)[C@H]5NC(=O)[C@@H](Cc6ccc(cc6)O4)NC(=O)[C@H](NC)c4ccc(O)c(c4)Oc4cc(O)c(Cl)c5c4)c4ccc(O)c(c4)-c4c(O[C@H]5O[C@H](CO)[C@@H](O)[C@H](O)[C@@H]5O)cc(O)cc4[C@@H](C(=O)O)NC3=O)OC(C(=O)O)C(O)[C@@H]2O)cc1 (some centres not stated) | 1 (≈ 0.584 µM) | 1 (≈ 0.584 µM) | 16 | 1 | 1 | 32 | – | MIC [3]: 128 µg/mL; MIC [22]: 1 µg/mL; MIC [15]: > 128 µg/mL
CCCCCCCCOc1ccc(CNC2[C@H](Oc3c4cc5cc3Oc3ccc(cc3Cl)[C@@H](O)C3NC(=O)[C@H](NC(=O)[C@@H]5NC(=O)[C@H]5NC(=O)[C@@H](Cc6ccc(cc6)O4)NC(=O)[C@H](NC)c4ccc(O)c(c4)Oc4cc(O)c(Cl)c5c4)c4ccc(O)c(c4)-c4c(O[C@H]5O[C@H](CO)[C@@H](O)[C@H](O)[C@@H]5O)cc(O)cc4[C@@H](C(=O)NCCCN(C)C)NC3=O)OC(C(=O)NCCCN(C)C)C(O)[C@@H]2O)cc1 (some centres not stated) | 0.25 (≈ 0.129 µM) | 0.5 (≈ 0.258 µM) | – | 0.125 | 0.13 | 4 | – | MIC [23]: 0.8 µg/mL; MIC [24]: 0.25 µg/mL; MIC [25]: 8 µg/mL
CN(C)CCCNC(=O)C1O[C@@H](Oc2c3cc4cc2Oc2ccc(cc2Cl)[C@@H](O)C2NC(=O)[C@H](NC(=O)[C@@H]4NC(=O)[C@H]4NC(=O)[C@@H](Cc5ccc(cc5)O3)NC(=O)[C@H](N(C)Cc3ccc(C(=O)Oc5ccccc5)cc3)c3ccc(O)c(c3)Oc3cc(O)c(Cl)c4c3)c3ccc(O)c(c3)-c3c(O[C@H]4O[C@H](CO)[C@@H](O)[C@H](O)[C@@H]4O)cc(O)cc3[C@@H](C(=O)NCCCN(C)C)NC2=O)C(NCc2ccc(C(=O)Oc3ccccc3)cc2)[C@@H](O)C1O (some centres not stated) | 1 (≈ 0.467 µM) | 1 (≈ 0.467 µM) | 2 | 0.25 | 0.5 | 2 | – | MIC [10]: > 16 µg/mL; MIC [12]: 0.25 µg/mL
CN(Cc1ccc(-c2ccccc2)cc1)[C@H]1C(=O)N[C@@H]2Cc3ccc(cc3)Oc3cc4cc(c3O[C@@H]3OC(C(=O)O)C(O)[C@H](O)C3N)Oc3ccc(cc3Cl)[C@@H](O)C3NC(=O)[C@H](NC(=O)[C@@H]4NC(=O)[C@@H](NC2=O)c2cc(cc(O)c2Cl)Oc2cc1ccc2O)c1ccc(O)c(c1)-c1c(O[C@H]2O[C@H](CO)[C@@H](O)[C@H](O)[C@@H]2O)cc(O)cc1[C@@H](C(=O)O)NC3=O (some centres not stated) | 1 (≈ 0.583 µM) | 1 (≈ 0.583 µM) | 16 | 2 | 0.5 | 32 | – | MIC [17]: 0.5 µg/mL; MIC [18]: > 128 µg/mL; MIC [19]: 128 µg/mL
CN(C)CCCNC(=O)C1O[C@@H](Oc2c3cc4cc2Oc2ccc(cc2Cl)[C@@H](O)C2NC(=O)[C@H](NC(=O)[C@@H]4NC(=O)[C@H]4NC(=O)[C@@H](Cc5ccc(cc5)O3)NC(=O)[C@H](N(C)Cc3c[nH]c5ccccc35)c3ccc(O)c(c3)Oc3cc(O)c(Cl)c4c3)c3ccc(O)c(c3)-c3c(O[C@H]4O[C@H](CO)[C@@H](O)[C@H](O)[C@@H]4O)cc(O)cc3[C@@H](C(=O)NCCCN(C)C)NC2=O)C(NCc2c[nH]c3ccccc23)[C@@H](O)C1O (some centres not stated) | 1 (≈ 0.506 µM) | 2 (≈ 1.01 µM) | 2 | 1 | 0.25 | 2 | < 0.125 | MIC [26]: 8 µg/mL; MIC [27]: 32 µg/mL
CN[C@H]1C(=O)N[C@@H]2Cc3ccc(cc3)Oc3cc4cc(c3O[C@@H]3OC(C(=O)O)C(O)[C@H](O)C3NCc3ccc5ccccc5c3)Oc3ccc(cc3Cl)[C@@H](O)C3NC(=O)[C@H](NC(=O)[C@@H]4NC(=O)[C@@H](NC2=O)c2cc(cc(O)c2Cl)Oc2cc1ccc2O)c1ccc(O)c(c1)-c1c(O[C@H]2O[C@H](CO)[C@@H](O)[C@H](O)[C@@H]2O)cc(O)cc1[C@@H](C(=O)O)NC3=O (some centres not stated) | 1 (≈ 0.592 µM) | 2 (≈ 1.18 µM) | 16 | 2 | 2 | 32 | – | MIC [3]: 128 µg/mL; MIC [22]: 1 µg/mL; MIC [15]: > 128 µg/mL
CN[C@H]1C(=O)N[C@@H]2Cc3ccc(cc3)Oc3cc4cc(c3O[C@@H]3OC(C(=O)NCCCN(C)C)C(O)[C@H](O)C3N)Oc3ccc(cc3Cl)[C@@H](O)C3NC(=O)[C@H](NC(=O)[C@@H]4NC(=O)[C@@H](NC2=O)c2cc(cc(O)c2Cl)Oc2cc1ccc2O)c1ccc(O)c(c1)-c1c(O[C@H]2O[C@H](CO)[C@@H](O)[C@H](O)[C@@H]2O)cc(O)cc1[C@@H](C(=O)NCCCN(C)C)NC3=O (some centres not stated) | 2 (≈ 1.16 µM) | 1 (≈ 0.582 µM) | – | 1 | 1 | 0.05 | 1 | MIC [23]: > 128 µg/mL; MIC [19]: 128 µg/mL
